Tests used:
[1] = system: C2C12 muscle cells; experiment: Measurement of protein synthesis in C2C12 cells (radio-labeled leucine incorporation); assay type: cell-based; settings: for effect on protein synthesis in C2C12 muscle cells: 150 min incubation, radio-labeled leucine, versus DMSO control
Method: The cells are counted and seeded at the density of 20 000 cells per well in a 24-well plate in DMEM medium containing glucose in a proportion of 4.5 g/l and supplemented with fetal calf serum (10%) and with antibiotics (penicillin and streptomycin). Forty-eight hours layer, the myoblasts are induced to differentiate by partial serum deprivation (2% instead of 10%) for 5 days. The cells are then placed in medium without glucose or leucine (Krebs medium) for 1 h at 37° C., then incubated for 150 min in the presence of the products to be tested (DMSO (control), kynurenic acid or anthranilic acid or quinolinic acid or picolinic acid or 3OH-kynurenine) or reference (IGF-1, 100 ng/ml) in serum-free DMEM medium containing 2.5 μCi/ml radio-labeled leucine. At the end of the incubation, the supernatants are removed and the cells are lysed in 0.1N NaOH solution for 30 min. The radioactivity is measured in the cell fraction and the total amount of proteins is determined by assaying according to the Lowry method. Each condition is evaluated at least with n=6; IGF-1, 100 ng/ml is our control for stimulating protein synthesis. The results are expressed in cpm/μg of proteins after 150 min of incubation or as a percentage relative to the control condition. The results are expressed as % of the control and a statistical test is carried out: Dunnett's or Dun test (*p<0.05, **p<0.01, ***p<0.001 versus control). The results obtained with kynurenic acid, anthranilic acid, quinolinic acid, picolinic acid and 3OH-kynurenin are represented in FIGS. 1 to 5.

[2] = system: loss of muscle mass; settings: mice on a protein-poor diet, supplementation; cited from earlier work
[3] = system: C2C12 muscle fibers; experiment: Evaluation of the diameter of the C2C12 muscle fibers; assay type: cell-based; settings: incubation for 3 days, 100 μM
Method: The C2C12 myoblast cells (ATCC CRL-1772) are seeded in 8-well plates treated with glycerol, at the density of 10 000 cells per well and cultured in DMEM medium containing glucose in a proportion of 4.5 g/l and supplemented with fetal calf serum (10%) and with antibiotics (penicillin and streptomycin). Forty-eight hours layer, the myoblasts are induced to differentiate by partial serum deprivation (2% instead of 10%) for 3 days. The cells are then placed in a serum-free, glucose-depleted medium (DMEM containing 1 g/l of glucose) in the presence of the molecules to be tested (DMSO (control) or kynurenic acid) or the references (IGF-1 at the concentration of 10 ng/ml or dexamethasone at 10 μM) for 3 days. At the end of the culture, the cells are rinsed and fixed using a 2.5% glutaraldehyde/0.1% triton solution for 1 h at ambient temperature. The cell layer is covered with DAPI (fluorescent labeling of the cell nucleus). After storage in the dark for 16 h in the cold, the slides are observed under a fluorescence microscope (Carl Zeiss, AxioVert 200) and the images are analyzed using the Axiovision 4.1 software for measuring the diameter of the fibers. A representative image of each condition is shown. A statistical test is carried out: Dunnett's or Dun test (*p<0.05, **p<0.01, ***p<0.001 versus control). The results obtained with kynurenic acid are represented in FIG. 7.

[4] = system: myostatin gene expression in C2C12 muscle cells; experiment: Measurement of myostatin gene expression in C2C12 cells (RT-qPCR); assay type: cell-based; settings: 6 hours of incubation, standardized to beta-actin
Method: The C2C12 myoblast cells (ATCC CRL-1772) are seeded in 24-well plates at the density of 30 000 cells per well and cultured in a DMEM medium containing glucose in a proportion of 4.5 g/l and supplemented with fetal calf serum (10%) and with antibiotics (penicillin and streptomycin). Forty-eight hours later, the myoblasts are induced to differentiate by partial serum deprivation (2% instead of 10%) for 5 days. The cells are then placed in a serum-free, glucose-depleted medium (DMEM containing 1 g/l of glucose) in the presence of the molecules to be tested (DMSO (control) or IGF-1 (100 ng/ml) or kynurenic acid) or of the references (IGF-1 at the concentration of 100 ng/ml) for 6 h. […] The samples analyzed all contain […] of cDNA, a qPCR buffer including the enzyme, the oligonucleotide mixture and the intercalating agent (sybergreen), and the pair of primers specific for the gene studied, strategically chosen between two exon sequences and at the final concentration of 200 nM. […] A fluorescence threshold is established by the program of the machine. […] It is this value which forms the basis for the calculations to relatively quantify the DNA. […] The primers used are given in table 1 below: At the end of the incubation, the expression of the myostatin gene is measured by RT-qPCR and standardized using the beta-actin housekeeping gene. […]

[5] = system: muscle atrophy induced by immobilization; experiment: Muscle atrophy induced by immobilization in mice; assay type: in vivo; settings: CD1 mice, 7 days immobilization, 3 mg/kg per day in the drinking water, compared with control group
Source text: Limb immobilization is known to induce skeletal muscle atrophy involving mechanisms linked to protein degradation, to a change in muscle fiber types, to oxidative stress or inflammatory mechanisms. Briefly, male 8-9-week-old CD1 mice were used in this study. The foot of the left hindlimb was immobilized for 7 days according to the procedure described by Caron et al. (2009), in the dorso-tibial flexion position, by means of a surgical staple. The other foot (right hindlimb) is used as a control. For the duration of the immobilization, one group of animals (n=12) received a treatment with kynurenic acid (3 mg/kg per day) in the drinking water. Another group of animals served as a control (n=16 animals). At the end of the 7 days of study, the animals were sacrificed in order to remove the Tibialis anterial muscle from the two hindlimbs. For each animal, the difference between the weight of the muscle of the immobilized limb and the free limb is calculated, then related back to the bodyweight. The results are expressed as weight loss of the immobilized limb relative to the control limb (in mg per g of body weight), and a statistical test is carried out: Student's test (*p<0.05, **p<0.01, ***p<0.001 versus control group).

## Nc1c(O)cccc1C(=O)C[C@H](N)C(=O)O [3OH-kynurenine, reference compound]
[1]
  effect on protein synthesis in C2C12 muscle cells: no effect on protein synthesis

## Nc1ccccc1C(=O)C[C@H](N)C(=O)O [L-kynurenine]
[2]
  effect on loss of muscle mass: varies according to the dose tested (beneficial or negative)

## N[C@@H](Cc1c[nH]c2ccccc12)C(=O)O [TRP, Tryptophan]
[2]
  effect on loss of muscle mass: capable of reducing the loss of muscle mass

## Nc1ccccc1C(=O)O [anthranilic acid]
[1]
  effect on protein synthesis in C2C12 muscle cells: significantly induce protein synthesis

## O=C(O)c1cc(=O)c2ccccc2[nH]1 [kynurenic acid]
[3]
  size (diameter) of the C2C12 muscle fibers: increase in the size of the C2C12 muscle fibers
[4]
  myostatin gene expression: significant dose-dependent inhibition
[5]
  loss of muscle (Tibialis anterior) mass induced by immobilization: significantly decreases the loss of muscle
[1]
  effect on protein synthesis in C2C12 muscle cells: significantly induce protein synthesis
[1]; after 150 min of incubation
  dose dependence of stimulation of protein synthesis: dose-dependent stimulation of protein synthesis

## O=C(O)c1ccccn1 [picolinic acid]
[1]
  effect on protein synthesis in C2C12 muscle cells: significantly induce protein synthesis

## O=C(O)c1cccnc1C(=O)O [quinolinic acid]
[1]
  effect on protein synthesis in C2C12 muscle cells: significantly induce protein synthesis
